US12329755B2, “Bromodomain inhibitors to target therapy-resistant cancer” (University of Tennessee Research Foundation, priority 2019, dated 2025)

Experiments:
[1] = biological target: T1, GFP-tagged bromodomain of BRG1 (GFP-BRG1 BRD) (Homo sapiens, UniProt P51532); test: nuclear localization of fluorescently tagged BRG1 bromodomain in MT330 GBM cells; format: cell-based; details: PFI-3 10 or 30 μM; IV-073 5, 10 or 30 μM; compared to DMSO
T1 construct: a fluorescently tagged bromodomain of BRG1 expressed in MT330 GBM cells; expressed in transfected cells; host or cells: MT330 GBM cells
Source text: FIG. 4 is a series of fluorescence microscopy images showing the effects of Brahma-related gene-1 bromodomain inhibitors (BRIs) on the nuclear localization of a green fluorescent protein (GFP)-tagged bromodomain of Brahma-related gene-1 (GFP-BRG1 BRD).
The effects of PFI-3 and its analogs on the nuclear localization of a fluorescently tagged bromodomain of BRG1 expressed in MT330 GBM cells was studied. In the control samples, the fluorescent bromodomain is localized to the nucleus. However, an inhibitor displaces it from the nucleus and the fluorescence signal markedly decreases because it is degraded in the cytoplasm.

X16 BTIC = X16 BTIC mouse flank xenografts; format: in vivo, mice; details: combined with TMZ, 8 weeks
Protocol: FIG. 1F is a graph showing the effect of temozolomide (TMZ) on the tumorigenicity of control (black portion of bars) and Brahma-related gene-1-knock-down (BRG1-KD) (grey portion of bars) brain-tumor initiating cells (BTICs) after injection of 10^6 tumor cells into the flanks of immunodeficient mice. Live animal imaging preformed at weekly intervals. After confirming tumor initiation by live animal imaging, mice were treated with TMZ by interperitoneal (IP) injection (10 milligrams per kilogram (mg/kg) on alternate days). The reduction in tumor volume was calculated at 1 week (left) and 2 weeks (right) post-treatment. *p≤0.05.
FIG. 5 is a graph showing the effect of Brahma-related gene-1 bromodomain inhibitors (BRIs), PFI-3 and the PFI-3 analogs (PAs) IV-073, IV-077, and IV-085, on the anticancer activity of temozolomide (TMZ) on brain-tumor initiating-cell (BTIC) tumor growth. BTICs (10^6 cells) from X16 glioblastoma were injected into the flanks of immunodeficient mice. After confirming tumor initiation by live animal imaging, mice were treated with PFI-3 or a PA (0.5 microgram per mouse (μg/mouse)) and TMZ (0.25 mg/mouse) by intrarperitoneal (IP) injection on alternate days. The reduction in tumor volume was calculated at 2 weeks post-treatment.
BRG1 loss sensitizes BTICs to TMZ in vitro and in vivo: Although the alkylating agent TMZ is front-line chemotherapy in the treatment of GBM, a significant clinical problem is intrinsic or adaptive resistance to TMZ.^63 To evaluate TMZ sensitivity, GBM6 or X16 BTICs were treated with 300 μM or 500 μM TMZ, and cell proliferation was determined. […] Since BRG1 has been implicated in DNA double-strand break repair,^65-67 it was hypothesized that BRG1 loss in BTICs would sensitize BTICs to TMZ. […] To determine whether BRG1-KD sensitized BTICs to TMZ in vivo, animal studies were conducted with control (scrambled shRNA) and BRG1-KD X16 BTICs injected into the flanks of NSG mice. After tumor initiation was confirmed by live animal imaging, mice were treated with TMZ. […] Thus, despite X16 BRG1-KD BTICs producing larger tumors, the tumors were sensitized to TMZ therapy.
In contrast, all mice with single drug treatment had to be euthanized because the tumors had reached […] by 3 weeks post-treatment.

GBM cells [2] = test: survival of mice after intracranial injection of GBM cells; format: in vivo; details: combination with TMZ, intraperitoneal, 10 mg/kg body weight
Protocol: FIG. 6 is a graph showing the survival curves (percent survival versus days after treatment) of mice after intracranial injection of glioblastoma (GBM) cells and intraperitoneal injection of temozolomide (TMZ) or combinations of TMZ and a Brahma-related gene-1 bromodomain inhibitors (BRIs): PFI-3 or one of the presently disclosed PFI-3 analogs (PAs) IV-073 or IV-085. Five mice per group were treated with TMZ with or without the BRI (10 milligrams per kilogram (mg/kg) body weight.
TMZ with or without a BRI was also tested in mice after intercranial injection of GBM cells.

GBM cells [3] = test: overall statements on GBM cell death and sensitization to TMZ; format: cell-based
Source text: The syntheses of two exemplary PA BRIs, referred to herein as YH-IV-073 (or IV-073), and YH-IV-077 (or IV-077), as well as of PFI-3 (also referred to herein as YH-IV-081), are shown in Scheme 2, below. As shown in Scheme 2, commercially available tert-butyloxycarbonyl (BOC)-protected amine 1 is contacted with 2-bromopyridine (2) to form intermediate 3. The protecting group can be removed (e.g., via hydrolysis) to give the corresponding amine 4. Compound 4 can be coupled with a carboxylic acid (5, 6, or 7) to afford target YH-IV-073, YH-IV-077 and YH-IV-081, respectively. […] These analogs will provide greater insight into the importance of substitution of the A ring.
The synthetic route shown in Scheme 3, below, was used to synthesize new analogs with different substituents in the 2-position of the A-ring, such as YH-IV-085. As shown in Scheme 3, a commercially available 1-phenylprop-2-yn-1-one (e.g., 8 or 9) can be reacted with BOC-protected amine compound 1 to afford a BOC-protected intermediate (e.g., 10 or 11), which can be hydrolyzed to provide corresponding deprotected intermediate (12 or 13). The intermediates can be coupled with the 2-bromopyridine (2) to yield target compounds (e.g., 14 or YH-IV-085), respectively. YH-IV-085 is believed to be the first PFI-3 analog prepared without a 2-hydroxy moiety in the A-ring.

X10 BTICs = details: cited from earlier work
[4] = test system: cancer cell lines (lung, synovial sarcoma, leukemia, and rhabdoid tumor cells); details: panel of cancer cell lines; cited from earlier work

T1 sequence (P51532 1453-1564 limits assumed): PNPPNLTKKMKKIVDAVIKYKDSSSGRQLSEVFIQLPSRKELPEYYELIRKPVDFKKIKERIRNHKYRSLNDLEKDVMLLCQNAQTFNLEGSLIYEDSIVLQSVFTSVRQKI

## O=C(/C=C/N1C[C@H]2C[C@@H]1CN2c1ccccn1)c1ccccc1O [PFI-3, (E)-1-(2-hydroxyphenyl)-3-((1R,4R)-5-(pyridin-2-yl)-2,5-diazabicyclo[2.2.1]heptan-2-yl)prop-2-en-1-one]
[1]
  displacement of the BRG1 bromodomain from the nucleus: displaces the BRG1 bromodomain from the nucleus
X16 BTIC
  tumors after treatment for 8 weeks: less dramatic effect
GBM cells [2]
  animal survival: enhanced animal survival
GBM cells [3]; also in cells resistant to DNA alkylation agents
  sensitizing GBM cells to DNA alkylation by TMZ: capable of sensitizing GBM cells
GBM cells [3]; used alone
  GBM cell death: do not cause GBM cell death
X10 BTICs; X10 BTICs, PFI-3 treatment
  sensitization to Carmustine: sensitized
X10 BTICs; combination of PFI-3 and TMZ
  effect on X10 BTIC proliferation: marked effect on X10 BTIC proliferation
[4]
  proliferation or tumorgenicity: not to inhibit the proliferation or tumorgenicity
